# Earlier results as cited in patent publication US20180311347A1, “POLYMORPHISMS IN CACHEXIA PREDICT CLINICAL OUTCOMES OF COLORECTAL CANCER PATIENTS RECEIVING IRINOTECAN AND BEVACIZUMAB” (University of Southern California, priority 2017, published 2018).
# System: type I activin like receptor
structure (smiles),measurement,value
NC(=O)c1ccc(-c2nc(-c3ccc4c(c3)OCO4)c(-c3ccccn3)[nH]2)cc1 [SB431542],VEGF expression,decrease VEGF expression
same,angiogenesis,inhibit angiogenesis
